Assay results from patent US20250099431A1, “GLP-1R MODULATING COMPOUNDS” (priority 2020, published 2025).

Columns and labels:
GLP-1R = GLP-1R (Homo sapiens (Human), UniProt P43220); test: GLP-1R activation: cAMP increase in CHO cells stably expressing GLP-1R; format: cell-based; settings: cAMP increase, 10 point dose response, 30 minutes incubation at 37° C., read-out: EC50
Description: GLP-1R activation by a compound of the present disclosure was quantified by measuring cAMP increase in CHO cells stably expressing GLP-1R (MultiSpan product #C1267-1a). […] The cells were then incubated overnight at 37° C., 5% CO2. […] 1% BSA (Rockland Immunochemicals product #BSA-1000)). Following the medium change, the cells were incubated for 1 hour at 37° C., 5% CO2. The tested GLP-1 compound was added to the cells in a 10 point dose response followed by a 30 minutes incubation at 37° C., 5% CO2. cAMP concentration increase was then detected using Cisbio's cAMP Gs Dynamic Kit (product #62AM4PEC) according to the manufacturer's protocol. The response was plotted against the log of the agonist concentration and fitted to a sigmoidal equation to determine the EC50.

[1] = Microsomal stability (liver microsomal assay, mixed cofactors); predicted hepatic clearance; format: in vitro ADME; settings: liver microsomes 1.0 mg protein/mL (+UDPGA +NADPH), 1 μM analyte, 37° C.; scaled with human liver weight and hepatic blood flow 1.3 L/hr/kg
Description: Metabolic stability of compounds was assessed using human or rat liver microsomal assays (Corning). In these assays, 10 nL of each analyte at a concentration of 1 mM in 100% DMSO was dispensed into a well of a polypropylene plates using the Echo 550 acoustic liquid dispenser (Labcyte®). Each plate contained 384 wells with a single analyte in each well.
A solution of human (Corning® Gentest™ Human Mixed Pooled Microsomes or rat (Corning® Gentest™ Rat [Sprague-Dawley] Pooled Liver Microsomes) liver microsomes at 2 mg/ml in 100 mM K2HPO4/KH2PO4 at pH 7. 4 was combined with alamethicin from Trichoderma viride (Sigma-Aldrich) 0.0225 mg/ml. The mixture was incubated on ice for 15 minutes. 5 μL of this mixture was added to individual wells following a 15 minute incubation at room temperature and supplemented with 5 μL NADPH Regenerating Solution of cofactors (Corning® Gentest™ UGT Reaction Mix) containing 100 mM K2HPO4/KH2PO4 at pH 7.4, 2.6 mM NADP+, 6.6 mM glucose-6-phosphate, 6.6 mM MgCl2, 0.8 U/mL glucose-6-phosphate dehydrogenase, 0.1 mM sodium citrate, and 6.8 mM uridine diphosphate-glucuronic acid. The final concentration of each analyte compound at the beginning of the reaction was 1 μM. The reactions were incubated at 37° C. and samples were collected at time points of 0, 5, 15, 30, 40, 50, 60, and 70 minutes for further analysis. Background data were collected using reactions without analyte compounds.
Upon collection of the sample time points, samples were quenched with 30 μL of a solution of 72% acetonitrile, 8% methanol, 0.1% formic acid, 19.9% water, and internal standard (IS). Reaction plates were spun in a centrifuge at speed of 4,000 rcf for 30 minutes at 4° C., following a dilution of the 10 μL quenched reaction into 40 μL de-ionized water, yielding assay plates.
Assay plates were analyzed using solid-state extraction coupled with quadrupole time-of-flight mass spectrometer, using Agilent QToF 6530 RapidFire 360 system, with C4 type A solid state cartridges. Analysis was performed in either positive or negative ionization modes. Mobile phases contained 0.1% formic acid in water for loading analytes onto solid state extraction cartridges and 0.1% formic acid in acetonitrile for elution into a mass spectrometer in positive ionization mode, or 0.1% acetic acid in water for loading and 0.1% acetic acid in acetonitrile for extraction in negative ionization mode. Peak-area ratios of integrated counts for individual compounds to IS were plotted as semi-logarithmic chart of log vs time. The initial linear portion of decay was fitted to a linear regression equation to derive the half-time of analyte decay.
Pharmacological parameters for an analyte compound metabolism were calculated using the following equations: […]
wherein concentration refers to the protein concentration (mg/ml) in the reaction.
This scales the in vitro intrinsic clearance up to the value that would be predicted for the entire mass of liver tissue (but with no restriction by blood flow). The value depends upon the size of the liver (species-dependent) and the yield of microsomal protein as appropriate (assumed to be species-independent).
Hepatic clearance will depend upon the inter-relationship of intrinsic clearance and hepatic blood flow and was predicted from in vitro data using a variety of approaches.
The hepatic extraction is reported as the predicted clearance expressed as a proportion of hepatic blood flow.

Chain of GLP-1R (P43220 24-463): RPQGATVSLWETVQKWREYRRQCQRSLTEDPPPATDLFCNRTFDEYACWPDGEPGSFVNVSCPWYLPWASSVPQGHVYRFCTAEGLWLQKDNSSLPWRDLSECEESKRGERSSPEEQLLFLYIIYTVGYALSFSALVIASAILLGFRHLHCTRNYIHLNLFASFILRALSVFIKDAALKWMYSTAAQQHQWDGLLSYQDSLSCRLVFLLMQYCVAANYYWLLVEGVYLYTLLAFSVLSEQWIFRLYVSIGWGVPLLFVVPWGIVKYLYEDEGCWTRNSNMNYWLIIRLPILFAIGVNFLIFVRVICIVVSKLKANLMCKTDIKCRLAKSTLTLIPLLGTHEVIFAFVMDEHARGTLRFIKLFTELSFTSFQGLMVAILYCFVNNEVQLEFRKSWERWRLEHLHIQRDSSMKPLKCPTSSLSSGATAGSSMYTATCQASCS

EC50 (GLP-1R) [nM] | Predicted Hepatic Clearance (Pred. Cl.) [1] [mL/min/kg] | Compound
160 | 11.8 | COCCn1c(Cc2cc(F)c(-c3c(F)ccc4c3OC(C)(c3ccc(Cl)cn3)O4)cc2F)nc2ccc(C(=O)O)cc21 (stereo not shown) [Example 101, 2-(4-(2-(5-chloropyridin-2-yl)-5-fluoro-2-methylbenzo[d][1, 3]dioxol-4-yl)-2,5-difluorobenzyl)-1-(2-methoxyethyl)-1H-benzo[d]imidazole-6-carboxylic acid]
1230 | 5 | COCCn1c(Cc2cc(F)c(-c3cccc4c3OC(c3ccc(C#N)cc3F)O4)cc2F)nc2ccc(C(=O)O)cc21 (single isomer, unassigned) [Example 40, 2-(4-(2-(4-cyano-2-fluorophenyl)benzo [d][1,3]dioxol-4-yl)-2,5-difluorobenzyl)-1-(2-methoxyethyl)-1H-benzo[d]imidazole-6-carboxylic acid]
0.41 | <1.83 | CC1(c2ccc(Cl)cc2F)Oc2cccc(-c3cc(F)c(Cc4nc5c(F)cc(C(=O)O)cc5n4CC4(CC#N)CC4)c(F)c3)c2O1 (stereo not shown) [Example 13, 2-(4-(2-(4-chloro-2-fluorophenyl)-2-methylbenzo[d][1, 3]dioxol-4-yl)-2,6-difluorobenzyl)-1-((1-(cyanomethyl)cyclo-propyl)methyl)-4-fluoro-1H-benzo[d]imidazole-6-carboxylic acid]
10000 | 2.5 | O=C(O)c1ccc2nc(Cc3c(F)cc(-c4cccc5c4CN(c4ccc(Cl)cc4F)C5=O)cc3F)n(C[C@@H]3CCO3)c2c1 [Example 73, (S)-2-(4-(2-(4-chloro-2-fluorophenyl)-1-oxoisoindolin-4-yl)-2,6-difluorobenzyl)-1-(oxetan-2-ylmethyl)-1H-benzo[d]imidazole-6-carboxylic acid]
2.6 | 1.83 | CC1(c2ccc(Cl)cc2F)Oc2cccc(-c3cc(F)c(Cc4nc5c(F)cc(C(=O)O)cc5n4CC4(CC#N)CC4)c(F)c3)c2O1 (single isomer, unassigned) [Example 105, 2-(4-(2-(4-chloro-2-fluorophenyl)-2-methylbenzo[d][1, 3]dioxol-4-yl)-2,6-difluorobenzyl)-1-((1-(cyanomethyl)cyclopropyl)methyl)-4-fluoro-1H-benzo[d]imidazole-6-carboxylic acid]
2.5 | 8.83 | COCCn1c(Cc2cc(F)c(-c3cccc4c3OC(C)(c3ccc(C#N)cc3F)O4)cc2F)nc2c(F)cc(C(=O)O)cc21 (stereo not shown) [Example 62, 2-(4-(2-(4-cyano-2-fluorophenyl)-2-methylbenzo[d][1, 3]dioxol-4-yl)-2,5-difluorobenzyl)-4-fluoro-1-(2-methoxyethyl)-1H-benzo[d]imidazole-6-carboxylic acid]
10 | 3.3 | COCCn1c(Cc2c(F)cc(-c3cccc4c3OC(C)(c3ccc(Cl)cn3)O4)cc2F)nc2ccc(C(=O)O)cc21 (stereo not shown) [Example 65, 2-(4-(2-(5-chloropyridin-2-yl)-2-methylbenzo[d][1, 3]dioxol-4-yl)-2,6-difluorobenzyl)-1-(2-methoxyethyl)-1H-benzo[d]imidazole-6-carboxylic acid]
72 | 4.33 | CC1(c2ccc(Cl)cc2F)Oc2cccc(-c3ccc(Cc4nc5ccc(C(=O)O)cc5n4C[C@@H]4CCO4)cn3)c2O1 (stereo partly drawn) [Example 77, 2-((6-(2-(4-chloro-2-fluorophenyl)-2-methylbenzo[d][1, 3]dioxol-4-yl)pyridin-3-yl)methyl)-1-(((S)-oxetan-2-yl)methyl)-1H-benzo[d]imidazole-6-carboxylic acid]
1000 | 3.83 | COCCn1c(Cc2c(F)cc(-c3cccc4c3OC(c3ccc(C#N)cc3F)O4)cc2F)nc2ccc(C(=O)O)cc21 (single isomer, unassigned) [Example 37, 2-(4-(2-(4-cyano-2-fluorophenyl)benzo [d][1,3]dioxol-4-yl)-2,6-difluorobenzyl)-1-(2-methoxyethyl)-1H-benzo[d]imidazole-6-carboxylic acid]
37 | 4 | COCCn1c(Cc2c(F)cc(-c3cccc4c3OC(c3ccc(C#N)cc3F)O4)cc2F)nc2ccc(C(=O)O)cc21 (single isomer, unassigned) [Example 38, 2-(4-(2-(4-cyano-2-fluorophenyl)benzo [d][1,3]dioxol-4-yl)-2,6-difluorobenzyl)-1-(2-methoxyethyl)-1H-benzo[d]imidazole-6-carboxylic acid]
0.52 | 6 | CC1(c2ccc(C#N)cc2F)Oc2cccc(-c3cc(F)c(Cc4nc5ccc(C(=O)O)cc5n4C[C@@H]4CCO4)c(F)c3)c2O1 (single isomer, unassigned) [Example 93]
0.78 | 3.5 | CC1(c2ccc(Cl)cn2)Oc2cccc(-c3cc(F)c(Cc4nc5ccc(C(=O)O)cc5n4C[C@@H]4CCO4)c(F)c3F)c2O1 (stereo partly drawn) [Example 70, 2-(4-(2-(5-chloropyridin-2-yl)-2-methylbenzo[d][1, 3]dioxol-4-yl)-2,3,6-trifluorobenzyl)-1-(((S)-oxetan-2-yl)methyl)-1H-benzo[d]imidazole-6-carboxylic acid]
2.4 | 4 | CC1(c2ccc(Cl)cn2)Oc2cccc(-c3cc(F)c(Cc4nc5ccc(C(=O)O)cc5n4CC4(CF)CC4)c(F)c3)c2O1 (stereo not shown) [Example 12, 2-(4-(2-(5-chloropyridin-2-yl)-2-methylbenzo[d][1, 3]dioxol-4-yl)-2,6-difluorobenzyl)-1-((1-(fluoromethyl)cyclo-propyl)methyl)-1H-benzo[d]imidazole-6-carboxylic acid]
0.3 | 4.33 | CC1(c2ccc(C#N)cc2F)Oc2cccc(-c3cc(F)c(Cc4nc5ccc(C(=O)O)cc5n4C[C@@H]4CCO4)cc3F)c2O1 (stereo partly drawn) [Example 25, 2-(4-(2-(4-cyano-2-fluorophenyl)-2-methylbenzo[d][1, 3]dioxol-4-yl)-2,5-difluorobenzyl)-1-(((S)-oxetan-2-yl)methyl)-1H-benzo[d]imidazole-6-carboxylic acid]
89 | 3.17 | COCCn1c(Cc2cc(F)c(-c3cccc4c3OC(c3ccc(C#N)cc3F)O4)cc2F)nc2ccc(C(=O)O)cc21 (stereo not shown) [Example 31, 2-(4-(2-(4-cyano-2-fluorophenyl)benzo [d][1,3]dioxol-4-yl)-2,5-difluorobenzyl)-1-(2-methoxyethyl)-1H-benzo[d]imidazole-6-carboxylic acid]

Compound | EC50 (GLP-1R) [nM] | Predicted Hepatic Clearance (Pred. Cl.) [1] [mL/min/kg]
2-[[4-[2-(5- Chloro-2-pyridyl)- 2-methyl-1,3- benzodioxol-4- yl]triazol-1- yl]methyl]-3-(2- methoxyethyl) bencarboxylic acid [Example 104] | 3030 | 13
CC1(c2ccc(Cl)cc2F)Oc2cccc(-c3cc(F)c(Cc4nc5ccc(C(=O)O)cc5n4C[C@@H]4CCO4)c(C#N)c3)c2O1 (stereo partly drawn) [Example 18, 2-(4-(2-(4-chloro-2-fluorophenyl)-2-methylbenzo[d][1, 3]dioxol-4-yl)-2-cyano-6-fluorobenzyl)-1-(((S)-oxetan-2-yl)methyl)-1H-benzo[d]imidazole-6-carboxylic acid] | 0.14 | 8
